Values quoted from earlier work as cited in paper PMC11920646 (Frontiers in Pharmacology, 2025).

How the values were obtained:
[1] = tested on: IL-6 release in A549 cells; design: method as in Hu et al., 2011; conditions: dagrocorat study ref Hu et al., 2011; cited from earlier work
[2] = tested on: IFN-γ release in human whole blood; design: method as in Hu et al., 2011; conditions: at concentrations each of 100–1000 nM ref Hu et al., 2011; cited from earlier work
[3] = humans ref Ripa et al., 2018; cited from earlier work

SMILES	inhibition of IL-6 release in A549 cells [1]	inhibition of IFN-γ release in human whole blood [2]	t½ [3]
Cc1ncccc1NC(=O)c1ccc2c(c1)CC[C@@H]1C[C@@](O)(C(F)(F)F)CC[C@@]21Cc1ccccc1 [dagrocorat]	78%	60–70%	–
CC(C)[C@H](NC(=O)C(C)(F)F)[C@H](Oc1ccc2c(cnn2-c2ccc(=O)n(C)c2)c1)c1ccccc1 [mizacorat]	–	–	~5 h
